This is an account of results in patent US4430263A, “Hapten-inhibitor immunoassay” (Abbott Laboratories, priority 1980, dated 1984).

This experiment concerns sheep T4 antibody (gamma globulin / IgG fraction from sheep antiserum). Nature of the experiment: Binding constant of T4 antibody binding sites (footnote to Table I, antibody modulation of STI-T4). The following applies: approximately 7.4 × 10^-8 M antibody binding sites; gamma globulin chromatographically isolated from sheep T4 antibody. As for the experimental part:
A working solution of 2.0 mg/ml gamma globulin (chromatographically isolated from sheep T4 antibody) is prepared in 0.1 M HEPES (N-2-hydroxyethylpiperazine-N'-2-ethanesulfonic acid) buffer, pH 8.0, containing 0.1% gelatin. A stock solution of the STI-T4 (soybean trypsin inhibitor-thyroxine) conjugate (8×10^-7 M) is also prepared in HEPES-gelatin buffer, pH 8.0. A trypsin stock solution is made at 1×10^-7 M in dilute HCl, pH 3.0, and stored at 4° C. The trypsin working reagent is diluted to a concentration of 8.2×10^-8 M with HCl gelatin, pH 3.0. Equal volumes (50 μl) of the thyroxine STI conjugate and antibody are mixed and incubated at room temperature for 5 minutes. Trypsin is then added to the mixture, incubated for 30 seconds, and a 25 μl portion of the assay mixture diluted into a cuvette with 250 μl of substrate (0.5 mM benzoylphenylalanylvalyl arginine p-nitroaniline in 0.05 M Tris pH 8.1 with 0.01 M CaCl2). The change in absorbance with time (t=5.5 minutes less t=0.5 minutes) is recorded using a Bichromatic Analyzer equipped with a 380/450 mμ filter. The following table gives the results for a suitable conjugate prepared in Example I.
A working solution of 1 mg/ml anti-T4 IgG (from sheep antiserum) is prepared in barbital buffer with gelatin. The approximate concentration of binding sites from […] analysis is 1.2×10^-7 M.

As to `N[C@@H](Cc1cc(I)c(Oc2cc(I)c(O)c(I)c2)c(I)c1)C(=O)O` [thyroxine], the “K (antibody binding sites)” value was ~1.3 × 10^9.
